Measured values taken from article PMC12951562, “SH2scan: Mapping SH2 Domain-Ligand Binding Selectivity for Inhibitors and Degraders” (Journal of Medicinal Chemistry, 2026).
Where two headings read alike, the source gives them in different places.

Columns and labels:
Assay in all cases: biochemical
Type in all cases: binding
[1] = target: T1, LYN (Homo sapiens, UniProt P07948); details: read-out: percent of DMSO vehicle control
T1 construct: the DNA-tagged SH2 domain concentrations used in this study were <0.1 nM; made in house; host or cells: HEK293 (transient transfection, unpurified extract)

[2] = target: T2, MATK (Homo sapiens, UniProt P42679); details: for percent of DMSO vehicle control at 10 µM / remaining activity at 10 µM: read-out: percent of DMSO vehicle control; for remaining activity at 10 µM: primary screen
T2 construct: the DNA-tagged SH2 domain concentrations used in this study were <0.1 nM; made in house; host or cells: HEK293 (transient transfection, unpurified extract)
T2 sequence (P42679 122-211 limits assumed): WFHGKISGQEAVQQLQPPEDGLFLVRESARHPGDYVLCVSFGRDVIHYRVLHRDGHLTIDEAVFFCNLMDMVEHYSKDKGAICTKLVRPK

[3] = target: T3, SH3BP2 (Homo sapiens, UniProt P78314); details: read-out: percent of DMSO vehicle control
T3 construct: made in house; host or cells: HEK293 (transient transfection), unpurified extract
T3 sequence (P78314 1-561): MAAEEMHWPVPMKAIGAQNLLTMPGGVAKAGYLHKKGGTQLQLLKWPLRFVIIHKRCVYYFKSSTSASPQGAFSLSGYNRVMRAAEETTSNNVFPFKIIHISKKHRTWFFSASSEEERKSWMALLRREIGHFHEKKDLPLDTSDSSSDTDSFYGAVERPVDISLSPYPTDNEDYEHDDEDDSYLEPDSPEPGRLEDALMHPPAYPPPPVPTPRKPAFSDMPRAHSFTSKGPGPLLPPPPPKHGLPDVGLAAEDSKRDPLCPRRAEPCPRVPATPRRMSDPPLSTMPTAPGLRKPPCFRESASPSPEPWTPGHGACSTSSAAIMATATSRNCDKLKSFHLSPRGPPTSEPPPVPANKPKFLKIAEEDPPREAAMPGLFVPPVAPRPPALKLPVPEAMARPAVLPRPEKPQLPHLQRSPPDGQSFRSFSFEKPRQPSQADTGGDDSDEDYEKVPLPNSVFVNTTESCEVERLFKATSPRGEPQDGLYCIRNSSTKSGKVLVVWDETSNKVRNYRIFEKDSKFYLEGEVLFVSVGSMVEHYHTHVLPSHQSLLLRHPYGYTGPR

[4] = target: T4, SHC3 (Homo sapiens, UniProt Q92529); details: for remaining activity at 10 µM: read-out: percent of DMSO vehicle control
T4 construct: made in house; host or cells: HEK293 (transient transfection), unpurified extract
T4 sequence (Q92529 1-594): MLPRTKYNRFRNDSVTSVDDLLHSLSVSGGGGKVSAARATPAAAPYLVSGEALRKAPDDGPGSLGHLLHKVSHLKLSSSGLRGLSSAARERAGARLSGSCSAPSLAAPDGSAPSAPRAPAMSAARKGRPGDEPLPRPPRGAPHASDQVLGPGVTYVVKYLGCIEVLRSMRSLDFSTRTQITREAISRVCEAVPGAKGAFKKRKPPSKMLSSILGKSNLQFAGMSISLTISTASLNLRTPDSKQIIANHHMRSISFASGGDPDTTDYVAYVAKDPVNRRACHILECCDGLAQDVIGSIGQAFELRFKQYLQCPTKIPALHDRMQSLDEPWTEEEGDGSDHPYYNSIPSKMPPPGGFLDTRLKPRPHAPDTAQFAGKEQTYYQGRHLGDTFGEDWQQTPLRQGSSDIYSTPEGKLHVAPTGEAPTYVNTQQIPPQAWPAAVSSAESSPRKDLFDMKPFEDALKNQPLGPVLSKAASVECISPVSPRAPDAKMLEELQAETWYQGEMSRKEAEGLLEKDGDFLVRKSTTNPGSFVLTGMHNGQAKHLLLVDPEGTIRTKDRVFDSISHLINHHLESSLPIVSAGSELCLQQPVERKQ

[5] = target: T5, SOCS7 (Homo sapiens, UniProt O14512); details: for remaining activity at 10 µM: read-out: percent of DMSO vehicle control
T5 construct: made in house; host or cells: HEK293 (transient transfection), unpurified extract
T5 sequence (O14512 1-581): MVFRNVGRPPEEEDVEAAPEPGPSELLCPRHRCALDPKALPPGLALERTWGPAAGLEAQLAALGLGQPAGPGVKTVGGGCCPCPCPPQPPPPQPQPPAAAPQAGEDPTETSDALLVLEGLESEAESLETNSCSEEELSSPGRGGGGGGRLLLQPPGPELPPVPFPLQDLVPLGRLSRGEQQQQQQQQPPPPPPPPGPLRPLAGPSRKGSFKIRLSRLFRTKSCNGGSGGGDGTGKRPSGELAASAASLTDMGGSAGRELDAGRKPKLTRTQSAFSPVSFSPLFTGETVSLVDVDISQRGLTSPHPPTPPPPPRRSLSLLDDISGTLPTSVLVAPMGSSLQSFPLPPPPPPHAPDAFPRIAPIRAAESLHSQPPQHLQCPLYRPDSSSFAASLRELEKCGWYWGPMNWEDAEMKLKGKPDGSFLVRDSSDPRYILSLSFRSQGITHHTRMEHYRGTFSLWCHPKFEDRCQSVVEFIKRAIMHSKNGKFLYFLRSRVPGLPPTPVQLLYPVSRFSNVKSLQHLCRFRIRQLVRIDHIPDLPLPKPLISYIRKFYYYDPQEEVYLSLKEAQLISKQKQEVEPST

[6] = target: T6, VAV1 (Homo sapiens, UniProt P15498); details: read-out: percent of DMSO vehicle control; for remaining activity at 10 µM: primary screen
T6 construct: made in house; host or cells: HEK293 (transient transfection), unpurified extract
T6 sequence (P15498 1-845): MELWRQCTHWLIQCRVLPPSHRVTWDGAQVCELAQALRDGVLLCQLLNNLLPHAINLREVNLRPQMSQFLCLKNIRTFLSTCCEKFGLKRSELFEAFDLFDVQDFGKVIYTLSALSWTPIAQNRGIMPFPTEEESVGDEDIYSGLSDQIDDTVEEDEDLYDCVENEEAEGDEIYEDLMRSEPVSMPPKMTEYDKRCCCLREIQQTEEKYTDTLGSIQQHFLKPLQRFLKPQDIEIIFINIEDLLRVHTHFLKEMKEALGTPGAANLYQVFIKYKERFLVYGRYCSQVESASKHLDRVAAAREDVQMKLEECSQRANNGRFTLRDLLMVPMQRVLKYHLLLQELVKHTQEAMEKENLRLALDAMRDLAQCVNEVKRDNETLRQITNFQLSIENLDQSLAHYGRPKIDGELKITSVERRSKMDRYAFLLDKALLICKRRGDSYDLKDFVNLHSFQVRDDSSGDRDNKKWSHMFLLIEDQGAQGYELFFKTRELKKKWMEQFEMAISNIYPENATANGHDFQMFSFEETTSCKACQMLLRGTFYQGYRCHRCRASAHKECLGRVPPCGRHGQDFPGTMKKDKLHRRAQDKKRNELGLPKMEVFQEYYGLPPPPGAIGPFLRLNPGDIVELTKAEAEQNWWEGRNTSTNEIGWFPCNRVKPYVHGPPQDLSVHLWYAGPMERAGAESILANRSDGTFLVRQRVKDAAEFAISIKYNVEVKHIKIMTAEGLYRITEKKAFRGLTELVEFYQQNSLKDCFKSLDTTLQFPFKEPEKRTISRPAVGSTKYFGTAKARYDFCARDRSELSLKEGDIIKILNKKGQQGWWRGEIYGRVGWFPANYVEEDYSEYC

T1 sequence (P07948 129-226 limits assumed): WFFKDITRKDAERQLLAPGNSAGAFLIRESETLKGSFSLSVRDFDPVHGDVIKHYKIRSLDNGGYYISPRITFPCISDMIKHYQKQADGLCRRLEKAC

Row | SMILES | remaining activity at 10 µM [1] [%] | percent of DMSO vehicle control at 10 µM [2] [%] | remaining activity at 10 µM [3] [%] | remaining activity at 10 µM [4] [%] | remaining activity at 10 µM [5] [%] | percent of DMSO vehicle control at 10 µM [6] [%] | remaining activity at 10 µM ([1]; primary screen, 10 μM) [%] | Kd ([2]; dose-response, read-out: KD) [µM] | remaining activity at 10 µM [2] [%] | remaining activity at 10 µM ([3]; primary screen, 10 μM) [%] | Kd ([4]; dose-response, read-out: KD) [µM] | remaining activity at 10 µM ([4]; primary screen, 10 μM) [%] | KD ([5]; dose-response) | remaining activity at 10 µM ([5]; primary screen, 10 μM) [%] | remaining activity at 10 µM [6] [%]
1 | NC(=O)CC[C@H](NC(=O)[C@@H]1CC[C@@H]2CCN(C(=O)CCCCCC#Cc3cccc4c3CN(C3CCC(=O)NC3=O)C4=O)C[C@H](NC(=O)c3cc4cc(C(F)(F)P(=O)(O)O)ccc4[nH]3)C(=O)N21)C(=O)NC(c1ccccc1)c1ccccc1 (stereo partly drawn) [SD-36] | 90.9 ± 2.3 | 159 ± 5.1 | 91.5 ± 19.4 | 74.5 ± 0.8 | 271 | 116 ± 3 |  |  |  |  |  |  |  |  | 
2 | CC(=O)N1CC[C@H]2CC[C@@H](C(=O)N[C@@H](CCC(N)=O)C(=O)NC(c3ccccc3)c3ccccc3)N2C(=O)[C@@H](NC(=O)c2cc3cc(C(F)(F)P(=O)(O)O)ccc3[nH]2)C1 [SI-109] | 140 | 163 | 131 | 122 | 124 | 112 |  |  |  |  |  |  |  |  | 
3 | C/C(=C\C(=O)N[C@H](C(=O)N1CCC[C@H]1C(=O)N(c1ccccc1)c1ccc(I)cc1)C(C)(C)C)c1ccc(OP(=O)(O)O)cc1 [STAT6-IN-1] |  |  |  |  |  |  | 73.6 ± 54 | 3 ± 0.49 | 6.5 ± 1.8 | 56.5 ± 0.3 | 3.6 ± 0.57 | 35.3 ± 4.8 | No Hit | 34.6 ± 0.1 | 55.3 ± 2.6
4 | CC(C)(C)[C@H](NC(=O)/C=C/c1ccc(OP(=O)(O)O)cc1)C(=O)N1CCC[C@H]1C(=O)N(c1ccccc1)c1ccc(I)cc1 [STAT6-IN-3] |  |  |  |  |  |  | 82.3 ± 17.1 |  | 70.3 ± 45.8 | 92.8 ± 2.7 |  | 50.6 ± 6.4 |  | 50.9 ± 16.4 | 67.6 ± 32.1
5 | O=C(COc1ccc2cc(C(=O)Nc3ccccc3)ccc2c1)NCc1ccc(OP(=O)(O)O)c(OP(=O)(O)O)c1 [Stafib-1] |  |  |  |  |  |  | 95.6 ± 22.4 |  | 59.9 ± 60.2 | 86 ± 3.2 |  | 87 ± 14.4 |  | 81 ± 17.8 | 106
